Results as given in patent publication US20240050463A1, “THERAPEUTIC COMPOSITIONS AND METHODS FOR TREATING HEPATITIS B” (ARBUTUS BIOPHARMA CORPORATION, priority 2016, published 2024).

Tests used:
[1] = test system: HBV rcDNA in AML12-HBV10 cells; assay: Inhibition of rcDNA in AML12-HBV10 cells (bDNA assay), checkerboard, MacSynergy II; type: cell-based, HBV (mouse hepatocyte cell line); settings: Hepatitis B virus, AML12HBV10, in Mus musculus, expected from additive interaction; Compound 3 0.3125 μM; ETV μM in c0 of the row
Procedure: The two inhibitors were tested both singly as well as in combinations in a checkerboard fashion such that each concentration of inhibitor A was combined with each concentration of inhibitor B to determine their combination effects on inhibition of rcDNA production.

[2] = test system: D type HBV in primary human hepatocytes (PHH); assay: HBV DNA in culture supernatants of HBV-infected primary human hepatocytes (qPCR), MacSynergy; type: cell-based; settings: COMPOUND 25 0.00 nM
Procedure: The mouse liver perfusion was applied to isolate PHHs. The isolated hepatocytes were further purified by Percoll. The cells were resuspended with culture media and seeded into the 96-well plates (6×10^4 cell/well) or 48-well plates (1.2×10^5 cell/well). The PHHs were infected with a D type HBV one day post seeding (day 1).
On day 2, the test compounds were diluted and added into the cell culture plates. The culture media containing the compounds were refreshed every other day. The cell culture supernatants were collected on day 8 for the HBV DNA and antigen determinations.
The compounds were tested at 7 concentrations, 3-fold dilution, in triplicate.
Two compounds were tested at 5×5 matrix, in triplicate plates.
DNA in the culture supernatants harvested on days 8 were isolated with QIAamp 96 DNA Blood Kit (Qiagen-51161). For each sample, 100 μl of the culture supernatants was used to extract DNA. The DNA was eluted with 100 μl, 150 μl or 180 μl of AE. HBV DNA in the culture supernatants was quantified by qPCR. The combination effect was analyzed by the MacSynergy software. The primers are described below.

[3] = test system: hepatitis B virus (HBV); assay: Serum HBsAg in humanized liver chimeric mouse model of chronic HBV infection (GS HBsAg EIA 3.0); type: in vivo; settings: Compound 3 oral 100 mg/kg twice daily, SIRNA-NP intravenous 3 mg/kg every 2 weeks, ETV oral 1.2 μg/kg daily, pegIFN α-2a subcutaneous 30 μg/kg twice a week
Procedure: This work was conducted in a well-established humanized liver chimeric mouse model of chronic hepatitis B virus (HBV) infection (Tsuge et al., Hepatology, 42(5), 1046-54 (2005)). A persistent level of HBV infection was established in the animals prior to the treatment phase which started at Day 0.
The anti-HBV effects were assessed based on serum HBsAg levels using the GS HBsAg EIA 3.0 enzyme linked immunosorbent assay kit from Bio-Rad Laboratories as per manufacturer instructions; and serum HBV DNA levels measured from total extracted DNA using a quantitative PCR assay (primer/probe sequences from Tanaka et al., Journal of Medical Virology, 72, 223-229 (2004)).

| SMILES | inhibition at 0.3125 µM [1] [%] | AVERAGE % INHIBITION, HBV DNA ([2]; COMPOUND 3 61.73 nM) [%] | AVERAGE % INHIBITION, HBV DNA ([2]; COMPOUND 3 185.19 nM) [%] | AVERAGE % INHIBITION, HBV DNA ([2]; COMPOUND 3 555.56 nM) [%] | AVERAGE % INHIBITION, HBV DNA ([2]; COMPOUND 3 1666.67 nM) [%] | AVERAGE % INHIBITION, HBV DNA ([2]; COMPOUND 3 5000.00 nM) [%] | Serum HBsAg (± SEM) ([3]; Day 0 (start of treatment)) [IU/mL] | Serum HBsAg (± SEM) ([3]; Day 21) [IU/mL] |
| --- | --- | --- | --- | --- | --- | --- | --- | --- |
| CC[C@@H](C)NS(=O)(=O)c1ccc(F)c(C(=O)Nc2ccc(F)c(F)c2)c1 [Compound 3] | 71 | −28.13 | −25.93 | −3.32 | 25.94 | 74.78 | – | – |
| C=C1[C@H](CO)[C@@H](O)C[C@@H]1n1cnc2c(=O)[nH]c(N)nc21 [ETV, Entecavir] | – | – | – | – | – | – | 2649 ± 282 | 2975 ± 629 |
